The values that follow come from patent US10287305B2, “Substituted piperidine compound and use thereof” (Takeda Pharmaceutical Company Limited, priority 2016, dated 2019).

The test concerns the target human orexin type 2 receptor (hOX2R) (Homo sapiens (Human), UniProt O43614). Nature of the test: Measurement of orexin type 2 receptor agonist activity (Experimental Example 2-1, FLIPR TETRA, intracellular Ca2+). In kind it is cell-based. The note with it: CHO dhfr- cells expressing hOX2R; for Emax at 30 µM: value at 30 uM concentration, orexin B as full agonist = 100%; for Emax: read-out: Emax (%). The text has this:
To obtain a cell clone stably expressing human orexin type 2 receptor, human orexin type 2 receptor cDNA was inserted into pcDNA3.1(+) plasmid vector (Invitrogen), and a plasmid DNA for expression of human orexin type 2 receptor (pcDNA3.1(+)/hOX2R) was cloned. The plasmid DNA was introduced into CHO-dhfr cell by an electroporation method, and human orexin type 2 receptor expressing clone cells were obtained by limiting dilution method by using G418 drug resistance as a selection marker.
Chinese hamster ovary (CHO) dhfr-cells forcibly expressing human orexin type 2 receptor (hOX2R) were seeded in each well of Black clear bottom plate (384 wells) (Becton, Dickinson and Company) by 10,000 cells, and cultured for 16 hr in an MEM-alpha (Nikken-Bio Co., Ltd.) medium containing 100 U/ml penicillin, 100 μg/ml streptomycin, […] G418 (all above Invitrogen), and 10% fetal calf serum (Thermo), under the conditions of 37° C., 5% CO2. […] A test compound was dissolved in dimethyl sulfoxide to 10 mM, and then diluted with assay buffer 2 (20 mM HEPES, Hanks' balanced salt solution (Invitrogen), 0.1% bovine serum albumin). For the reaction, a test compound solution (10 μL) was added using Fluorescent Imaging Plate Reader TETRA (FLIPR TETRA; manufactured by Molecular Devices), a fluorescence value (excitation wavelength 488 nm, measurement wavelength 570 nm) of each well was measured every one second for 1 min, and the agonist activity was determined using the area of the fluorescence value as an indicator of intracellular Ca^2+ concentration.

Setting [1] is: agonist activity, 10 nM human orexin B = 100%.

Chain of human orexin type 2 receptor (hOX2R) (O43614 whole entry): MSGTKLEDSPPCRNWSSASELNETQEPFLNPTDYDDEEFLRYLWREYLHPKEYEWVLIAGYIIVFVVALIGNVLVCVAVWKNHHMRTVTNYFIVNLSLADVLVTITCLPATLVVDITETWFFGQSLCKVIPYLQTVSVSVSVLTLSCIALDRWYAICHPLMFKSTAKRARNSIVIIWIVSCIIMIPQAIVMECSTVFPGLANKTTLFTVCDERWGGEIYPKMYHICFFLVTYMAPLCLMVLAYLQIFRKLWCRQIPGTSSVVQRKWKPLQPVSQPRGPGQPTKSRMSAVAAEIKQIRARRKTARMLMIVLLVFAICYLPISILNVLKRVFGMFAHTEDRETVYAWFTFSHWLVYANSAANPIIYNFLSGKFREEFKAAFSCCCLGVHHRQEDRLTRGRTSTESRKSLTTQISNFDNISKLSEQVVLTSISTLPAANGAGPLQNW

`CC(=O)N1CCC[C@H](NS(C)(=O)=O)[C@@H]1CO[C@H]1CC[C@@H](c2ccccc2)CC1` [Example 4, N-((2R,3S)-1-acetyl-2-(((cis-4-phenylcyclohexyl)oxy)methyl)piperidin-3-yl)methanesulfonamide] showed an Emax at 30 µM of 106%. The same molecule yielded a concentration for a half-maximal effect (EC50) under setting [1] of 44 nM.
Taken in the same sequence, the figures for `CC(C)[C@H]1CC[C@@H](OC[C@H]2[C@@H](NS(C)(=O)=O)CCCN2C(=O)C(C)(C)C)CC1` (relative stereo) [Example 53, N-(cis-1-(2,2-dimethylpropanoyl)-2-(((cis-4-isopropylcyclohexyl)oxy)methyl)piperidin-3-yl)methanesulfonamide] were 96% and 980 nM.
As to `COC(=O)N1CCC[C@H](NS(C)(=O)=O)[C@@H]1CO[C@H]1CC[C@@H](c2ccccc2OC)CC1` [Example 277, methyl (2R,3S)-2-(((cis-4-(2-methoxyphenyl)cyclohexyl)oxy)methyl)-3-((methylsulfonyl)amino)piperidine-1-carboxylate], for the setting “FLIPR TETRA, Fluo-4AM”, a half-maximal response (EC50) required 2.9 nM and the Emax was found to be 95%.
In the case of `CC(C)[C@H]1CC[C@@H](OC[C@H]2[C@@H](NS(C)(=O)=O)CCCN2C(=O)COc2ccccc2)CC1` (relative stereo) [Example 44, N-(cis-2-(((cis-4-isopropylcyclohexyl)oxy)methyl)-1-(phenoxyacetyl)piperidin-3-yl)methanesulfonamide], the Emax at 30 µM came out at 96%. For the same molecule, the EC50 under setting [1] was determined as 1300 nM.
Regarding `CC(C)OC(=O)N1CCC[C@H](NS(C)(=O)=O)[C@@H]1CO[C@H]1CC[C@@H](c2cccc(F)c2)CC1` [Example 264, isopropyl (2R,3S)-2-(((cis-4-(3-fluorophenyl)cyclohexyl)oxy)methyl)-3-((methylsulfonyl)amino)piperidine-1-carboxylate], for the setting “FLIPR TETRA, Fluo-4AM”, the EC50 was found to be 21 nM and the Emax was determined as 91%.
As for `CC(C)[C@H]1CC[C@@H](OC[C@H]2[C@@H](NS(C)(=O)=O)CCCN2C(=O)COc2ccn(C)n2)CC1` [Example 84, N-((2R,3S)-2-(((cis-4-isopropylcyclohexyl)oxy)methyl)-1-(((1-methyl-1H-pyrazol-3-yl)oxy)acetyl)piperidin-3-yl)methanesulfonamide], the Emax at 30 µM is 98%. This molecule displayed an EC50 under setting [1] of 840 nM.
For `CC(=O)N1CCC[C@H](NS(C)(=O)=O)[C@@H]1CO[C@H]1CC[C@@H](c2cc(F)cc(F)c2F)CC1` [Example 243, N-((2R,3S)-1-acetyl-2-(((cis-4-(2,3,5-trifluorophenyl)cyclohexyl)oxy)methyl)piperidin-3-yl)methanesulfonamide], for the setting “FLIPR TETRA, Fluo-4AM”, it took 17 nM to reach a half-maximal effect (EC50) and the Emax is 97%.
On to `CS(=O)(=O)N[C@H]1CCCN(C(=O)C2CCCC2)[C@H]1COC1CCN(c2ccccc2F)CC1` (relative stereo) [Example 229, N-(cis-1-(cyclopentylcarbonyl)-2-(((1-(2-fluorophenyl)piperidin-4-yl)oxy)methyl)piperidin-3-yl)methanesulfonamide], for which, for the setting “FLIPR TETRA, Fluo-4AM”, the EC50 amounted to 1500 nM and the Emax was found to be 85%.
Take `CC(C)[C@H]1CC[C@@H](OC[C@H]2[C@@H](NS(C)(=O)=O)CCCN2C(=O)C2CCOCC2)CC1` (relative stereo) [Example 60, N-(cis-2-(((cis-4-isopropylcyclohexyl)oxy)methyl)-1-(tetrahydro-2H-pyran-4-ylcarbonyl)piperidin-3-yl)methanesulfonamide]: the Emax at 30 µM is 101%. Besides, the EC50 under setting [1] is 140 nM.
Turning to `CS(=O)(=O)N[C@H]1CCCN(C(=O)C2CC2)[C@H]1COC1CCN(c2ncccn2)CC1` (relative stereo) [Example 196, N-(cis-1-(cyclopropylcarbonyl)-2-(((1-(pyrimidin-2-yl)piperidin-4-yl)oxy)methyl)piperidin-3-yl)methanesulfonamide], for the setting “FLIPR TETRA, Fluo-4AM”, the EC50 is 30 nM and the Emax was 104%.
Molecule `CC(C)[C@H]1CC[C@@H](OC[C@H]2[C@@H](NS(C)(=O)=O)CCCN2C(=O)Cn2cnccc2=O)CC1` (relative stereo) [Example 93, N-(cis-2-(((cis-4-isopropylcyclohexyl)oxy)methyl)-1-((6-oxopyrimidin-1(6H)-yl)acetyl)piperidin-3-yl)methanesulfonamide] came in with an Emax at 30 µM of 84%. In addition, the concentration for a half-maximal effect (EC50) under setting [1] turned out to be 2300 nM.
For the molecule `CC(C)[C@H]1CC[C@@H](OC[C@H]2[C@@H](NS(C)(=O)=O)CCCN2S(=O)(=O)c2cccnc2)CC1` (relative stereo) [Example 66, N-(cis-2-(((cis-4-isopropylcyclohexyl)oxy)methyl)-1-(pyridin-3-ylsulfonyl)piperidin-3-yl)methanesulfonamide], the Emax at 30 µM stood at 87%. A half-maximal effect under setting [1] (EC50) was put at 3800 nM.
As for `CC(C)OC(=O)N1CCC[C@H](NS(C)(=O)=O)[C@@H]1COC1CCN(c2ccccc2F)CC1` (relative stereo) [Example 237, isopropyl cis-2-(((1-(2-fluorophenyl)piperidin-4-yl)oxy)methyl)-3-((methylsulfonyl)amino)piperidine-1-carboxylate], where the note is “FLIPR TETRA, Fluo-4AM”, the midpoint of the response, the EC50, lay at 490 nM and the maximal effect (Emax) came out at 90%.
Take `COc1ccccc1[C@H]1CC[C@@H](OC[C@H]2[C@@H](NS(C)(=O)=O)CCCN2C(C)=O)CC1` [Example 291, N-((2R,3S)-1-acetyl-2-(((cis-4-(2-methoxyphenyl)cyclohexyl)oxy)methyl)piperidin-3-yl)methanesulfonamide]: under “FLIPR TETRA, Fluo-4AM”, the EC50 turned out to be 26 nM and the Emax came to 98%.
In turn, `CC(=O)N1CCC[C@H](NS(=O)(=O)N(C)C)[C@@H]1CO[C@H]1CC[C@@H](c2ccccc2)CC1` (relative stereo) [Example 111, N′-(cis-1-acetyl-2-(((cis-4-phenylcyclohexyl)oxy)methyl)piperidin-3-yl)-N,N-dimethylsulfuric diamide] returned an Emax at 30 µM of 97%. The same molecule showed an EC50 under setting [1] of 13 nM.
Regarding `COC(=O)N1CCC[C@H](NS(C)(=O)=O)[C@@H]1CO[C@H]1CC[C@@H](c2cccc(F)c2)CC1` [Example 200, methyl (2R,3S)-2-(((cis-4-(3-fluorophenyl)cyclohexyl)oxy)methyl)-3-((methylsulfonyl)amino)piperidine-1-carboxylate], the Emax (FLIPR TETRA, Fluo-4AM) was 95%.
As to `CS(=O)(=O)N[C@H]1CCCN[C@H]1CO[C@H]1CC[C@@H](c2c(F)ccc(F)c2F)CC1` [Example 21, N-((2R,3S)-2-(((cis-4-(2,3,6-trifluorophenyl)cyclohexyl)oxy)methyl)piperidin-3-yl)methanesulfonamide], the Emax at 30 µM turned out to be 108%. The molecule also returned an EC50 under setting [1] of 200 nM.
For `CCNC(=O)N1CCC[C@H](NS(C)(=O)=O)[C@@H]1CO[C@H]1CC[C@@H](c2cccc(F)c2)CC1` [Example 148, (2R,3S)-N-ethyl-2-(((cis-4-(3-fluorophenyl)cyclohexyl)oxy)methyl)-3-((methylsulfonyl)amino)piperidine-1-carboxamide], under “FLIPR TETRA, Fluo-4AM”, the EC50 was 0.053 nM and the Emax amounted to 103%.
As to `COC(=O)N1CCC[C@H](NS(C)(=O)=O)[C@@H]1CO[C@H]1CC[C@@H](c2ccccc2C(F)(F)F)CC1` [Example 32, methyl (2R,3S)-3-((methylsulfonyl)amino)-2-(((cis-4-(2-(trifluoromethyl)phenyl)cyclohexyl)oxy)methyl)piperidine-1-carboxylate], the maximal response (Emax) at 30 µM was determined as 102%. Moreover, the EC50 under setting [1] came out at 15 nM.

As a reminder, the EC50 is the concentration at which the effect is half-maximal. A higher EC50 goes with a less potent agent. Broadly, the Emax is the greatest response seen or fitted, relative to the assay's reference.
